Consider one compound from PMC9714921 (PLOS Pathogens, 2022).

Where “and” joins values, the source holds several entries; their conditions need not be identical. Equal entries are not always repeated. Where two headings read alike, the source gives them in different places.

Experiment [1] concerns the target Bma-ACR-16-asuICL chimera (Brugia malayi; Ascaris suum, UniProt A0A4E9FSR7+F1KYJ9). It is filed as cell-based, B. malayi (A. suum ICL). On the procedure:
(§1) B. malayi acr-16 and accessory proteins ric-3, unc-50, unc-74 and molo-1 were cloned from adult female B. malayi cDNA received as a gift from Dr. T. Geary using the primers described in S1 Table. B. malayi eat-18 was prepared from two overlapping oligonucleotide primers. Other subunits were synthesized from their predicted genome sequence (Gene Universal, USA) (S2 Table). […] All sequences were cloned into the pTD2 oocyte expression vector. Asu-ACR-16 and Tzc-ACR-16 chimeras were constructed using appropriate restriction enzymes, reciprocal exchange through ligation and confirmed by sequencing (McLab, USA).
(§2) cRNA for oocyte injection was prepared with the mMESSAGE mMACHINE T7 kit following manufacturers protocol (Ambion, USA). Concentration was determined using a Nanodrop spectrophotometer. Desired subunit combinations with associated accessory proteins were mixed and diluted with nuclease-free water to a final concentration of 250 ng/uL for each construct.
Adult female X. laevis oocyte extraction was performed in accordance with the McGill University Animal Use Protocol 2015–7758 following standard protocol. Briefly, frog ovary lobes were placed in a Ca^2+-free OR2 solution (82 mM NaCl, 2 mM KCl, 1 mM MgCl2, 5 mM HEPES buffer, pH 7.3) and manually divided into clusters of <10 oocytes with thin tweezers followed by a 90-minute incubation in 10 mg/mL collagenase type II (Sigma-Aldrich, USA). Oocytes were washed in Ca^2+-free OR2 and placed ND96 solution (NaCl 96 mM, KCl 2 mM, CaCl2 1.8 mM, MgCl2 1 mM and HEPES 5 mM, pH 7.3) supplemented with sodium pyruvate 2.5 mM [86] and incubated at 18°C until cRNA injection. Oocytes were injected with 50 nL (12.5 ng of each injected gene) of the desired cRNA subunit and accessory protein combination mix with the NanojectII (Drummond Scientific, USA). Following injection, oocytes were incubated in ND96 buffer at 18°C until electrophysiology. All electrophysiology was conducted two days post-injection, except for the expression analysis assay in which oocytes were measured every day after injection for three consecutive days.
All drugs were dissolved in recording solution (NaCl 100 mM, KCl 2.5 mM, CaCl2 1 mM, HEPES 5 mM, pH 7.3) to a stock concentration of 10 mM and diluted to their final recording concentrations. Oxantel and bephenium were first dissolved in DMSO to ensure a final recording concentration contained less than 0.1% DMSO. For agonist profiling, all drugs were diluted to a concentration of 100 μM.
Oocytes were placed individually in an RC3Z chamber (Harvard Apparatus, USA) submerged in recording solution (NaCl 100 mM, KCl 2.5 mM, CaCl2 1 mM, HEPES 5 mM, pH 7.3). The RC3Z chamber was connected to a perfusion system containing recording solution and ligand solutions. Pulled glass capillaries (World Precision Instruments, USA) were filled with 3M KCl and the tips clipped and checked for appropriate resistance (between 0.5 and 5 MΩ). A 3M KCl agar bridge grounded the oocyte bath chamber. Measurements were made using an Axon Axoclamp 900A amplifier with Digidata1550M. […] Ligand solutions were applied to the oocytes with an approximate flow rate of 1.2 m/s and current responses measured. Oocytes were exposed to the ligand solution until a distinct current peak was observed followed by a wash with the recording solution until current returned to baseline for a minimum of 10 seconds until the next ligand exposure. For BAPTA-AM exposed oocytes, oocytes were incubated in 100 μM BAPTA-AM for four hours prior to electrophysiology recording. Data was analyzed using Clampex 9.2 (Axon Instruments, USA) and statistical analysis and graphs produced in Prism (GraphPad version 9.1). T-tests were used to compare responses with error bars representing standard error. For concentration-response curves, individual oocyte current response to the different ligand concentrations were normalized to the response obtained with 300 μM.

The test system of the next experiment is Tzc-ACR-16-REM. The experiment can be described thus: Voltage-clamp electrophysiology, coding-sequence modified ACR-16 in oocytes. It is filed as cell-based, T. callipaeda. Conditions: B. malayi ric-3 co-injected; agonist not named in the legend (ACh by the matching native values). On the procedure: as §1, §2
Adult female X. laevis oocyte extraction was performed in accordance with the McGill University Animal Use Protocol 2015–7758 following standard protocol. […] All electrophysiology was conducted two days post-injection, except for the expression analysis assay in which oocytes were measured every day after injection for three consecutive days. […]

The test system of a further experiment is T. muris N-AChR. Conditions: read-out: EC50 μM ACh; accessory protein Ric-3; ref [35]; cited from earlier work.
In the next experiment the test system is N. americanus N-AChR. Conditions: read-out: EC50 μM ACh; accessory protein Ric-3; ref [33]; cited from earlier work.
The subject of another experiment is P. equorum N-AChR. Conditions: read-out: EC50 μM ACh; accessory protein Ric-3; ref [40]; cited from earlier work.

For `CC(=O)OCC[N+](C)(C)C` [ACh, acetylcholine], the “current response to 100 μM acetylcholine” value in experiment [1] (No accessory protein) is 0 ± 0 (n=15) nA; in experiment [1] (co-injected: Bma-ric-3 (reference condition), listed as acetylcholine), 59 ±43 nA and 59 ± 12 (n=14) nA; in experiment [1] (co-injected: Bma-ric-3 + Bma-emc-6 + Cel-nra-2 + Cel-nra-4, listed as acetylcholine), 1 ± 2 nA and 1 ± 1 (n=11) nA; in experiment [1] (co-injected: Bma-ric-3 + Cel-emc-6) it was 37 ± 12 (n=15) ns nA; in experiment [1] (co-injected: Bma-ric-3 + Cel-nra-2 + Cel-nra-4, listed as acetylcholine), 47 ± 18 (n=14) ns nA; in experiment [1] (co-injected: Bma-ric-3 + Cel-nra-2, listed as acetylcholine), 256 ± 89 (n=11) nA. For the same compound, in the experiment with Tzc-ACR-16-REM, the current response is 587 ± 415 nA. The half-maximal effective concentration (EC50) (as a rule, the concentration needed to bring the measured effect to its halfway point) in the experiment on T. muris N-AChR is 31.1 ± 0.3 µM; in the experiment on N. americanus N-AChR, 170 ± 19.2 µM; with P. equorum N-AChR, 6.4 ± 0.6 µM.
